Laboratory results: patent publication US11795204B2 (Zealand Pharma A/S, priority 2012, dated 2023)
pEC50: −log10 of the molar value. Square brackets hold non-standard residues; d marks the D form. Peptide text beside a SMILES is read from it. Dab = NCC[C@H](N)C(=O)O; Aib = CC(C)(N)C(=O)O

Experiments:
physchem = conditions: pH 7.5
Procedure: A stock solution of the test peptide (2 mg/ml; determined by measurement of the absorption of the solution at 280 nm, and using the theoretical extension coefficient based on the content of tryptophan and tyrosine in the peptide) in demineralized water adjusted to pH 2.5 with HCl was prepared, and aliquots were diluted 1:1 in 100 mM acetate buffer (pH 4.0) and 100 mM phosphate buffer (pH 7.5), respectively, and loaded in a standard flat-bottom, non-sterile 96-well UV Microplate. The absorbance of samples (single samples, n=1) at 280 and 325 nm was measured in an absorbance-based plate reader, which was preheated to ambient temperature.

human Glucagon-R = target: T1, human Glucagon-R (Homo sapiens, UniProt P47871); test: Glucagon receptor assay (cAMP induction, AlphaScreen); assay type: cell-based; conditions: HEK293 cells expressing the human Glucagon-R, 15 min at 37° C., read-out: GCG-R EC50 in vitro
T1 construct: expressed in transfected cells
T1 sequence (P47871 26-477): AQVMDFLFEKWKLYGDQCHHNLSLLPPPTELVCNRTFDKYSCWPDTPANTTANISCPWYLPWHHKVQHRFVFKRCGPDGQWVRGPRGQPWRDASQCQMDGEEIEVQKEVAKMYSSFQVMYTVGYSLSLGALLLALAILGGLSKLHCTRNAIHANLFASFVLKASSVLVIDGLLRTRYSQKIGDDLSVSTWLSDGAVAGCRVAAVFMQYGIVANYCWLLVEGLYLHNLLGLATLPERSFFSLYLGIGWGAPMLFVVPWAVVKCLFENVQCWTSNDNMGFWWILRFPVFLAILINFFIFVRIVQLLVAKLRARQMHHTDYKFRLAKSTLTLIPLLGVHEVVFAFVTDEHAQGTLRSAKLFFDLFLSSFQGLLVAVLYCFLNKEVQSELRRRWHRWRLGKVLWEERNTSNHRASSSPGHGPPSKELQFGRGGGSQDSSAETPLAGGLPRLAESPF
Procedure: The 5′-end primers additionally encoded a near-Kozak consensus sequence to ensure efficient translation. […] 48 hr after transfection, cells were seeded for limited dilution cloning and selected with 1 mg/ml G418 in the culture medium.
On the day of analysis, growth medium was removed and the cells were washed once with […] of the included Assay buffer with IBMX. Cells were incubated in […] Assay buffer/IBMX containing increasing concentrations of test peptides for 15 min at 37° C. Then the peptides/Assay buffer was removed and cells were lysed by addition of […] Lysis buffer pr. well and incubation for at least 10 min at room temperature. From each well […] cell lysate was transferred to a 384-well OptiPlate and mixed with Donor and Acceptor beads and incubated for 1 h at room temperature. The cAMP content was measured on an Envision plate reader.

[1] = Chemical stability assessment (RP-HPLC normalized purity); assay type: physicochemical; conditions: for Normalized purity pH 4.0 after 14 days: 1 mg/ml in 50 mM acetate buffer pH 4.0, 40° C.; for Normalized purity pH 7.5 after 14 days: 1 mg/ml in 50 mM phosphate buffer pH 7.5, 40° C.
Procedure: Samples were placed in glass vials and incubated at 40° C. The samples were analysed by reverse-phase HPLC on a C18 column with gradient elution using an acetonitrile/trifluoroacetic acid/water eluent system. The area-percentage (area-%) of the main peak after incubation time T=t (relative to time T=0) was detected by UV spectrometry at 220 nm. The purity was first determined as follows: Purity(area-%)=(area of main peak/total area of all peaks)×100. […] Normalized purity values in Table 2 were determined after 14 days of incubation.

Compound	solubility (physchem)	pEC50 (human Glucagon-R)	Normalized purity pH 4.0 after 14 days [1]	Normalized purity pH 7.5 after 14 days [1]
CC(C)C[C@H](NC(=O)[C@H](Cc1c[nH]c2ccccc12)NC(=O)[C@H](CCCCN)NC(=O)[C@@H](NC(=O)[C@H](Cc1ccccc1)NC(=O)[C@H](CO)NC(=O)[C@H](CCC(=O)O)NC(=O)[C@H](C)NC(=O)[C@H](CCCNC(=N)N)NC(=O)[C@H](C)NC(=O)C(C)(C)NC(=O)[C@H](CC(=O)O)NC(=O)[C@H](CC(C)C)NC(=O)[C@H](Cc1ccc(O)cc1)NC(=O)[C@H](CCCCN)NC(=O)[C@H](CO)NC(=O)[C@H](Cc1ccc(O)cc1)NC(=O)[C@H](CC(=O)O)NC(=O)[C@H](CO)NC(=O)[C@@H](NC(=O)[C@H](Cc1ccccc1)NC(=O)[C@@H](NC(=O)CNC(=O)[C@H](CCC(N)=O)NC(=O)[C@H](CO)NC(=O)[C@@H](N)Cc1c[nH]cn1)[C@@H](C)O)[C@@H](C)O)C(C)C)C(=O)N[C@@H](CCC(=O)O)C(=O)N[C@@H](CO)C(=O)N[C@H](C(=O)O)[C@@H](C)O [Compound 15] (H-HSQGTFTSDYSKYLD[Aib]ARAESFVKWLEST-OH)	≥ 1 mg/mL	10.52	89.1%	95.1%
CC(C)C[C@H](NC(=O)[C@H](Cc1c[nH]c2ccccc12)NC(=O)[C@H](CCCCN)NC(=O)[C@@H](NC(=O)[C@H](Cc1ccccc1)NC(=O)[C@H](CC(=O)O)NC(=O)[C@H](CCC(=O)O)NC(=O)[C@H](C)NC(=O)[C@H](CCCNC(=N)N)NC(=O)[C@H](C)NC(=O)C(C)(C)NC(=O)[C@H](CC(=O)O)NC(=O)[C@H](CC(C)C)NC(=O)[C@H](Cc1ccc(O)cc1)NC(=O)[C@H](CCCCN)NC(=O)[C@H](CO)NC(=O)[C@H](Cc1ccc(O)cc1)NC(=O)[C@H](CC(=O)O)NC(=O)[C@H](CO)NC(=O)[C@@H](NC(=O)[C@H](Cc1ccccc1)NC(=O)[C@@H](NC(=O)CNC(=O)[C@H](CCC(N)=O)NC(=O)[C@H](CO)NC(=O)[C@@H](N)Cc1c[nH]cn1)[C@@H](C)O)[C@@H](C)O)C(C)C)C(=O)N[C@@H](CCC(=O)O)C(=O)N[C@@H](CO)C(=O)N[C@H](C(=O)O)[C@@H](C)O [Compound 12] (H-HSQGTFTSDYSKYLD[Aib]ARAEDFVKWLEST-OH)	≥ 1 mg/mL	10.52	86.8%	90.8%
CC(=O)NCC[C@H](NC(=O)[C@H](CO)NC(=O)[C@@H](N)Cc1c[nH]cn1)C(=O)NCC(=O)N[C@H](C(=O)N[C@@H](Cc1ccccc1)C(=O)N[C@H](C(=O)N[C@@H](CO)C(=O)N[C@@H](CC(=O)O)C(=O)N[C@@H](Cc1ccc(O)cc1)C(=O)N[C@@H](CO)C(=O)N[C@@H](CCCCN)C(=O)N[C@@H](Cc1ccc(O)cc1)C(=O)N[C@@H](CC(C)C)C(=O)N[C@@H](CC(=O)O)C(=O)NC(C)(C)C(=O)N[C@@H](C)C(=O)N[C@@H](CCCNC(=N)N)C(=O)N[C@@H](C)C(=O)N[C@@H](CCC(=O)O)C(=O)N[C@@H](CO)C(=O)N[C@@H](Cc1ccccc1)C(=O)N[C@H](C(=O)N[C@@H](CCCCN)C(=O)N[C@@H](Cc1c[nH]c2ccccc12)C(=O)N[C@@H](CC(C)C)C(=O)N[C@@H](CCC(=O)O)C(=O)N[C@@H](CO)C(=O)N[C@H](C(=O)O)[C@@H](C)O)C(C)C)[C@@H](C)O)[C@@H](C)O [Compound 32] (H-HS[Dab](Ac)GTFTSDYSKYLD[Aib]ARAESFVKWLEST-OH)	≥ 1 mg/mL	11.03	91.2%	96.3%
CC(C)C[C@H](NC(=O)[C@H](Cc1c[nH]c2ccccc12)NC(=O)[C@H](CCCCN)NC(=O)[C@@H](NC(=O)[C@H](Cc1ccccc1)NC(=O)[C@H](CO)NC(=O)[C@H](CCC(=O)O)NC(=O)[C@H](C)NC(=O)[C@H](CCCNC(=N)N)NC(=O)[C@H](C)NC(=O)C(C)(C)NC(=O)[C@H](CC(=O)O)NC(=O)[C@H](CC(C)C)NC(=O)[C@H](Cc1ccc(O)cc1)NC(=O)[C@H](CCCCN)NC(=O)[C@H](CO)NC(=O)[C@H](Cc1ccc(O)cc1)NC(=O)[C@H](CC(=O)O)NC(=O)[C@H](CO)NC(=O)[C@@H](NC(=O)[C@H](Cc1ccccc1)NC(=O)[C@@H](NC(=O)CNC(=O)[C@H](CCC(N)=O)NC(=O)[C@H](CO)NC(=O)[C@@H](N)Cc1c[nH]cn1)[C@@H](C)O)[C@@H](C)O)C(C)C)C(=O)N[C@@H](CCC(=O)O)C(=O)N[C@@H](CO)C(=O)N[C@@H](C)C(=O)O [Compound 30] (H-HSQGTFTSDYSKYLD[Aib]ARAESFVKWLESA-OH)	≥ 1 mg/mL	10.80	88.6%	91.4%
CC(C)C[C@H](NC(=O)[C@H](Cc1c[nH]c2ccccc12)NC(=O)[C@H](CCCCN)NC(=O)[C@@H](NC(=O)[C@H](Cc1ccccc1)NC(=O)[C@H](CO)NC(=O)[C@H](CCC(=O)O)NC(=O)[C@H](C)NC(=O)[C@H](CCCNC(=N)N)NC(=O)[C@H](C)NC(=O)C(C)(C)NC(=O)[C@H](CC(=O)O)NC(=O)[C@H](CC(C)C)NC(=O)[C@H](Cc1ccc(O)cc1)NC(=O)[C@H](CCCCN)NC(=O)[C@H](CO)NC(=O)[C@H](Cc1ccc(O)cc1)NC(=O)[C@H](CC(=O)O)NC(=O)[C@H](CO)NC(=O)[C@@H](NC(=O)[C@H](Cc1ccccc1)NC(=O)[C@@H](NC(=O)[C@@H](C)NC(=O)[C@H](CCC(N)=O)NC(=O)[C@H](CO)NC(=O)[C@@H](N)Cc1c[nH]cn1)[C@@H](C)O)[C@@H](C)O)C(C)C)C(=O)N[C@@H](CCC(=O)O)C(=O)N[C@@H](CO)C(=O)N[C@H](C(=O)O)[C@@H](C)O [Compound 22] (H-HSQ[dA]TFTSDYSKYLD[Aib]ARAESFVKWLEST-OH)	≥ 1 mg/mL	10.62	91.1%	95.3%
H-HSQGTFTSDYSKYLDEARAEDFVKWLEST-OH [Compound 14]	≥ 1 mg/mL	9.82	89.5%	92.4%
H-HSQGTFTSDYSKYLDKARAEDFVKWLEST-OH [Compound 3]	≥ 1 mg/mL	10.52	85.0%	86.5%
CNC(=O)CC[C@H](NC(=O)[C@H](CO)NC(=O)[C@@H](N)Cc1c[nH]cn1)C(=O)NCC(=O)N[C@H](C(=O)N[C@@H](Cc1ccccc1)C(=O)N[C@H](C(=O)N[C@@H](CO)C(=O)N[C@@H](CC(=O)O)C(=O)N[C@@H](Cc1ccc(O)cc1)C(=O)N[C@@H](CO)C(=O)N[C@@H](CCCCN)C(=O)N[C@@H](Cc1ccc(O)cc1)C(=O)N[C@@H](CC(C)C)C(=O)N[C@@H](CC(=O)O)C(=O)NC(C)(C)C(=O)N[C@@H](C)C(=O)N[C@@H](CCCNC(=N)N)C(=O)N[C@@H](C)C(=O)N[C@@H](CCC(=O)O)C(=O)N[C@@H](CO)C(=O)N[C@@H](Cc1ccccc1)C(=O)N[C@H](C(=O)N[C@@H](CCCCN)C(=O)N[C@@H](Cc1c[nH]c2ccccc12)C(=O)N[C@@H](CC(C)C)C(=O)N[C@@H](CCC(=O)O)C(=O)N[C@@H](CO)C(=O)N[C@H](C(=O)O)[C@@H](C)O)C(C)C)[C@@H](C)O)[C@@H](C)O [Compound 26] (H-HSE(NHMe)GTFTSDYSKYLD[Aib]ARAESFVKWLEST-OH)	≥ 1 mg/mL	11.16	90%	93.9%
CC(C)C[C@H](NC(=O)[C@H](Cc1c[nH]c2ccccc12)NC(=O)[C@H](CCCCN)NC(=O)[C@@H](NC(=O)[C@H](Cc1ccccc1)NC(=O)[C@H](CO)NC(=O)[C@H](CCC(=O)O)NC(=O)[C@H](C)NC(=O)[C@H](CCCNC(=N)N)NC(=O)[C@H](CCCNC(=N)N)NC(=O)C(C)(C)NC(=O)[C@H](CC(=O)O)NC(=O)[C@H](CC(C)C)NC(=O)[C@H](Cc1ccc(O)cc1)NC(=O)[C@H](CCCCN)NC(=O)[C@H](CO)NC(=O)[C@H](Cc1ccc(O)cc1)NC(=O)[C@H](CC(=O)O)NC(=O)[C@H](CO)NC(=O)[C@@H](NC(=O)[C@H](Cc1ccccc1)NC(=O)[C@@H](NC(=O)CNC(=O)[C@H](CCC(N)=O)NC(=O)[C@H](CO)NC(=O)[C@@H](N)Cc1c[nH]cn1)[C@@H](C)O)[C@@H](C)O)C(C)C)C(=O)N[C@@H](CCC(=O)O)C(=O)N[C@@H](CO)C(=O)N[C@H](C(=O)O)[C@@H](C)O [Compound 25] (H-HSQGTFTSDYSKYLD[Aib]RRAESFVKWLEST-OH)	≥ 1 mg/mL	11.18	93.8%	89.8%
H-HSQGTFTSDYSKYLDLARAEDFVKWLEST-OH [Compound 17]	≥ 1 mg/mL	10.54	89.9%	88.3%
